Several values for one entry are separate records, joined by “and”; a condition that tells them apart may be missing. Equal values may be shown once. Read-outs that look alike come from different tables or passages of the source. One block for each compound: values may come before it.
What was measured:
Assay type in all cases: in vivo, Sprague–Dawley rats
[1] = Biliary (hepatobiliary) excretion in rats after a 30-min infusion of Kang-Ai injection
Experimental: (§1) For urine sampling, the rats were housed singly in metabolic cages. And then, the urine samples were collected at 0–4, 4–8 and 8–12 h after starting infusion and were weighed. Likewise, bile samples were also collected at 0–3, 3–6, 6–9 and 9–12 h after starting infusion and were weighed. The urine and bile collection tubes were all frozen at − 80 °C.
(§2) Pharmacokinetic parameters were estimated by non-compartmental analysis using WinNonlin 6.3 software (Pharsight, NC, US). Data are presented as the mean ± SD (n = 3). The area under the concentration–time curve up to the last measured point in time (AUC0-t) was calculated using the trapezoidal rule. The total plasma clearance (CLtot, p) was calculated by dividing the compound dose by the AUC0-∞, and the distribution volume at steady state (VSS) was estimated by multiplying the CLtot, p by the mean residence time (MRT). The renal excretory clearance (CLR) and hepatobiliary (CLB) was determined by dividing the cumulative amount excreted into urine (Cum.Ae-U) and bile (Cum.Ae-B) by the plasma AUC0-∞, respectively. The fractions of dose excreted into urine (fe-U) and the fractions of dose excreted into bile (fe-B) were established using the relationship Cum.Ae-U/Dose and Cum.Ae-B/Dose, respectively. Mean differences between treatment and control groups were analyzed by two-tailed unpaired Student’s t test by Graphpad Prism V5 software (SanDiego, CA). The level of significance was set at p < 0.05 (∗), p < 0.01 (∗∗) or p < 0.001 (∗∗∗).

[2] = Urinary (renal) excretion in rats after a 30-min infusion of Kang-Ai injection
Experimental: as §1, §2

[3] = Plasma pharmacokinetics in rats after a 30-min intravenous infusion of Kang-Ai injection
Experimental: Specific pathogen free (SPF) grade male Sprague–Dawley rats (250 ± 20) g were provided by the Experimental Animal Center of Zhengzhou University (Zhengzhou, China). These rats were kept in a designated animal room at constant temperature (22 ± 2) °C and humidity (50 ± 20) % with 12 h of light/dark per day and free access to water and food. All protocols of animal experiments were approved in accordance with the Regulations of Experimental Animal Administration issued by the Ethics Review Committee for Animal Experimentation of Jinan University (Ethical Review NO. 20190301010). Prior to the experiments, the rats were fasted for 12 h but with free access to water. After study use, the rats were euthanized with CO2 gas.
The rats in this study all received a single 30-min intravenous infusion of Kang-Ai injection via the tail veins using TYD01-02 infusion pumps (Lead Fluid, Baoding, China). The dose was derived from the label daily dose of Kang-Ai injection (60 mL/person, once daily) according to dose normalization by body surface area. For plasma pharmacokinetic studies, the rats were randomly received a single intravenous 30 min-bolus dose at 6 mL/kg. Blood samples (100 μL) were collected from the rats’ external jugular veins into heparinized polypropylene tubes at 5, 15, 30, 45 min, and 1, 1.5, 2, 3, 4, 6, 8, 12 h. After gently shaking for 10 s, the blood samples were centrifuged at 13000 g for 10 min to yield plasma samples, which were kept frozen at − 80 °C until analysis.
as §2

[4] = male, Sprague-Dawley, rat, in vivo, iv
[5] = rat urine 0–12 h, Kang-Ai injection 6 mL/kg iv
[6] = rat bile 0–12 h, Kang-Ai injection 6 mL/kg iv

Compound: C=C(CCC=C(C)C)[C@H]1CC[C@]2(C)[C@@H]1[C@H](O)C[C@@H]1[C@@]3(C)CC[C@H](O)C(C)(C)[C@@H]3[C@@H](O[C@@H]3O[C@H](CO)[C@@H](O)[C@H](O)[C@H]3O[C@@H]3O[C@@H](C)[C@H](O)[C@@H](O)[C@H]3O)C[C@]12C [Compound E3, Ginsenoside Rg6]
fe-B,0–12h (fraction of dose excreted into bile) ([1]; rat, in vivo, iv): 31.31 ± 6.25%

Compound: CC(C)=CCC[C@](C)(O[C@@H]1O[C@H](CO[C@@H]2OC[C@H](O)[C@H](O)[C@H]2O)[C@@H](O)[C@H](O)[C@H]1O)[C@H]1CC[C@]2(C)[C@@H]1[C@H](O)C[C@@H]1[C@@]3(C)CC[C@H](O)C(C)(C)[C@@H]3[C@@H](O)C[C@]12C [Compound C4, Ginsenoside F3]
fe-U,0–12h (fraction of dose excreted into urine) [2, 4]: 24.46 ± 3.37%
fe-B,0–12h (fraction of dose excreted into bile) [1, 4]: 67.93 ± 8.80%

CLtot, p ([3]; rat, in vivo, iv): 47.70 ± 10.72 mL/h
Cmax ([3]; rat, in vivo, iv): 344 ± 40.7 nM
VSS ([3]; rat, in vivo, iv): 93.63 ± 24.86 mL
t1/2 ([3]; rat, in vivo, iv): 2.16 ± 1.28 h
CLR (renal excretory clearance) ([2]; rat, in vivo, iv): 6.23 ± 2.97 mL/h
fe-U,0–12h (fraction of dose excreted into urine) ([2]; rat, in vivo, iv): 12.92 ± 4.98%
CLB (hepatobiliary clearance) ([1]; rat, in vivo, iv): 5.86 ± 1.10 mL/h
fe-B,0–12h (fraction of dose excreted into bile) ([1]; rat, in vivo, iv): 12.50 ± 1.32%
Compound: O=C1C=CC[C@@H]2[C@H]3C[C@H](O)CN4CCC[C@@H](CN12)[C@@H]34 [Compound A6, 9α-hydroxysophocarpine]

Compound: CC(C)(O)[C@@H]1CC[C@](C)([C@H]2[C@@H](O)C[C@@]3(C)[C@@H]4C[C@H](O[C@@H]5O[C@H](CO)[C@@H](O)[C@H](O)[C@H]5O)[C@H]5C(C)(C)[C@@H](O[C@@H]6OC[C@@H](O)[C@H](O)[C@H]6O[C@@H]6O[C@H](CO)[C@@H](O)[C@H](O)[C@H]6O)CC[C@@]56C[C@@]46CC[C@]23C)O1 [Compound B4, Astragaloside VI]
fe-U,0–12h (fraction of dose excreted into urine) [2, 5]: 63.43 ± 11.75%

Compound: CC(C)=CCC[C@](C)(O[C@@H]1O[C@H](CO)[C@@H](O)[C@H](O)[C@H]1O)[C@H]1CC[C@]2(C)[C@@H]1[C@H](O)C[C@@H]1[C@@]3(C)CC[C@H](O)C(C)(C)[C@@H]3[C@@H](O)C[C@]12C [Compound C2, Ginsenoside F1]
fe-U,0–12h (fraction of dose excreted into urine) [2, 5]: 23.37 ± 7.94%
fe-B,0–12h (fraction of dose excreted into bile) [1, 6]: 24.20 ± 4.93%

Compound: CC(C)=CCC[C@](C)(O[C@@H]1O[C@H](CO)[C@@H](O)[C@H](O)[C@H]1O)[C@H]1CC[C@]2(C)[C@@H]1[C@H](O)C[C@@H]1[C@@]3(C)CC[C@H](O)C(C)(C)[C@@H]3[C@@H](O[C@@H]3O[C@H](CO)[C@@H](O)[C@H](O)[C@H]3O[C@@H]3O[C@H](CO)[C@@H](O)[C@H](O)[C@H]3O)C[C@]12C [Compound C13, 20-Gluco-Ginsenoside Rf]
fe-U,0–12h (fraction of dose excreted into urine) ([2]; rat, in vivo, iv): 38.72 ± 6.57%

Compound: C=C(CCC=C(C)C)[C@H]1CC[C@]2(C)[C@@H]1[C@H](O)C[C@@H]1[C@@]3(C)CC[C@H](O)C(C)(C)[C@@H]3[C@@H](O[C@@H]3O[C@H](CO)[C@@H](O)[C@H](O)[C@H]3O)C[C@]12C [Compound E1, Ginsenoside Rk3]
fe-B,0–12h (fraction of dose excreted into bile) ([1]; rat, in vivo, iv): 27.80 ± 7.01%

Compound: O=c1cccc([C@@H]2C[C@H](CO)[C@H]3CCCCN3C2)[nH]1 [Compound A8, Mamanine]
CLtot, p ([3]; rat, in vivo, iv): 7.93 ± 1.77 mL/h
Cmax ([3]; rat, in vivo, iv): 421 ± 68.1 nM
VSS ([3]; rat, in vivo, iv): 16.89 ± 5.16 mL
t1/2 ([3]; rat, in vivo, iv): 2.32 ± 1.03 h
CLR (renal excretory clearance) ([2]; rat, in vivo, iv): 1.23 ± 0.50 mL/h
fe-U,0–12h (fraction of dose excreted into urine) ([2]; rat, in vivo, iv): 15.28 ± 5.11%
CLB (hepatobiliary clearance) ([1]; rat, in vivo, iv): 2.67 ± 0.46 mL/h
fe-B,0–12h (fraction of dose excreted into bile) ([1]; rat, in vivo, iv): 34.12 ± 4.23%

fe-U,0–12h (fraction of dose excreted into urine) ([2]; rat, in vivo, iv): 48.30 ± 10.27%
Compound: CC(C)=CCC[C@](C)(O[C@@H]1O[C@H](CO[C@@H]2O[C@@H](CO)[C@H](O)[C@H]2O)[C@@H](O)[C@H](O)[C@H]1O)[C@H]1CC[C@]2(C)[C@@H]1[C@H](O)C[C@@H]1[C@@]3(C)CC[C@H](O)C(C)(C)[C@@H]3[C@@H](O[C@@H]3O[C@H](CO)[C@@H](O)[C@H](O)[C@H]3O)C[C@]12C [Compound C11, Ginsenoside Re4]

fe-B,0–12h (fraction of dose excreted into bile) ([1]; rat, in vivo, iv): 29.36 ± 3.14%
Compound: CC(C)=CC/C=C(/C)[C@H]1CC[C@]2(C)[C@@H]1[C@H](O)C[C@@H]1[C@@]3(C)CC[C@H](O)C(C)(C)[C@@H]3[C@@H](O[C@@H]3O[C@H](CO)[C@@H](O)[C@H](O)[C@H]3O[C@@H]3O[C@@H](C)[C@H](O)[C@@H](O)[C@H]3O)C[C@]12C [Compound E4, Ginsenoside F4]

CLtot, p ([3]; rat, in vivo, iv): 20.03 ± 4.84 mL/h
Cmax ([3]; rat, in vivo, iv): 202 ± 19.1 nM
MRT ([3]; rat, in vivo, iv): 7.94 h
VSS ([3]; rat, in vivo, iv): 150.70 ± 19.02 mL
t1/2 ([3]; rat, in vivo, iv): 5.73 ± 1.74 h
CLR (renal excretory clearance) ([2]; rat, in vivo, iv): 12.32 ± 4.14 mL/h
fe-U,0–12h (fraction of dose excreted into urine) ([2]; rat, in vivo, iv): 61.05 ± 10.61%
CLB (hepatobiliary clearance) ([1]; rat, in vivo, iv): 1.42 ± 0.17 mL/h
fe-B,0–12h (fraction of dose excreted into bile) ([1]; rat, in vivo, iv): 7.30 ± 1.41%
Compound: O=C1CCCC2=C3CCC[N+]4([O-])CCC[C@@H](CN12)[C@@H]34 (some centres unmarked) [Compound A7, Leontalbinine N-oxide]

Compound: CC(C)=CCC[C@](C)(O[C@@H]1O[C@H](CO)[C@@H](O)[C@H](O)[C@H]1O)[C@H]1CC[C@]2(C)[C@@H]1[C@H](O)C[C@@H]1[C@@]3(C)CC[C@H](O)C(C)(C)[C@@H]3[C@@H](O[C@@H]3O[C@H](CO)[C@@H](O)[C@H](O)[C@H]3O[C@@H]3OC[C@@H](O)[C@H](O)[C@H]3O)C[C@]12C [Compound C10, Ginsenoside R1]
fe-U,0–12h (fraction of dose excreted into urine) [2, 5]: 40.28 ± 5.48%

Compound: O=c1cccc2n1C[C@H]1C[C@@H]2CN2CC[C@H](O)C[C@H]12 [Compound A5, Baptifoline]
t1/2 ([3]; rat plasma, 30-min iv infusion of Kang-Ai injection 6 mL/kg): 2.15 ± 0.50 h
Cmax ([3]; rat plasma, 30-min iv infusion of Kang-Ai injection 6 mL/kg, read-out: Cmax): 264 ± 47.2 nM
fe-U,0–12h (fraction of dose excreted into urine) [2, 5]: 37.56 ± 15.13%
fe-B,0–12h (fraction of dose excreted into bile) [1, 6]: 10.30 ± 1.11%

Compound: CC(C)=CC/C=C(\C)[C@H]1CC[C@]2(C)[C@@H]1[C@H](O)C[C@@H]1[C@@]3(C)CC[C@H](O)C(C)(C)[C@@H]3[C@@H](O[C@@H]3O[C@H](CO)[C@@H](O)[C@H](O)[C@H]3O)C[C@]12C [Compound E2, Ginsenoside Rh4]
fe-B,0–12h (fraction of dose excreted into bile) [1, 6]: 46.95 ± 6.46%

fe-U,0–12h (fraction of dose excreted into urine) ([2]; rat, in vivo, iv): 42.80 ± 14.69%
fe-B,0–12h (fraction of dose excreted into bile) ([1]; rat, in vivo, iv): 11.14 ± 1.05%
Compound: 9α-hydroxysophoramine [Compound A4]

fe-U,0–12h (fraction of dose excreted into urine) ([2]; rat, in vivo, iv): 36.16 ± 7.04%
Compound: CC(C)=CCC[C@](C)(O[C@@H]1O[C@H](CO[C@@H]2O[C@H](CO)[C@@H](O)[C@H](O)[C@H]2O)[C@@H](O)[C@H](O)[C@H]1O)[C@H]1CC[C@]2(C)[C@@H]1[C@H](O)C[C@@H]1[C@@]3(C)CC[C@H](O)C(C)(C)[C@@H]3[C@@H](O[C@@H]3O[C@H](CO)[C@@H](O)[C@H](O)[C@H]3O)C[C@]12C [Compound C12, Notoginsenoside R3]

Compound: CC(C)=CCC[C@](C)(O[C@@H]1O[C@H](CO)[C@@H](O)[C@H](O)[C@H]1O)[C@H]1CC[C@]2(C)[C@@H]1[C@H](O)C[C@@H]1[C@@]3(C)CC[C@H](O[C@@H]4O[C@H](CO)[C@@H](O)[C@H](O)[C@H]4O)C(C)(C)[C@@H]3CC[C@]12C [Compound D1, Ginsenoside F2]
fe-B,0–12h (fraction of dose excreted into bile) [1, 6]: 7.46% and 7.46 ± 2.11%

fe-B,0–12h (fraction of dose excreted into bile) ([1]; rat, in vivo, iv): 30.40 ± 3.79%
Compound: CC(C)(O[C@@H]1O[C@H](CO)[C@@H](O)[C@H](O)[C@H]1O)[C@@H]1CC[C@](C)([C@H]2[C@@H](O)C[C@@]3(C)[C@@H]4C[C@H](O)[C@H]5C(C)(C)[C@@H](O[C@@H]6OC[C@@H](O)[C@H](O)[C@H]6O)CC[C@@]56C[C@@]46CC[C@]23C)O1 [Compound B1, Isoastragaloside IV]

fe-U,0–12h (fraction of dose excreted into urine) ([2]; rat, in vivo, iv): 51.36 ± 7.44%
Compound: CC(C)(O[C@@H]1O[C@H](CO)[C@@H](O)[C@H](O)[C@H]1O)[C@@H]1CC[C@](C)([C@H]2[C@@H](O)C[C@@]3(C)[C@@H]4C[C@H](O)[C@H]5C(C)(C)[C@@H](O[C@@H]6OC[C@@H](O)[C@H](O)[C@H]6O[C@@H]6O[C@H](CO)[C@@H](O)[C@H](O)[C@H]6O)CC[C@@]56C[C@@]46CC[C@]23C)O1 [Compound B5, Astragaloside V]

From publication PMC7339578, “Multiple circulating alkaloids and saponins from intravenous Kang-Ai injection inhibit human cytochrome P450 and UDP-glucuronosyltransferase isozymes: potential drug–drug interactions” (Chinese Medicine, 2020)
